Measurements from patent US4451477A, “Bendazac treatment of cataract” (Aziende Chimiche Riunite Angelini Francesco A.C.R.A.F. …, priority 1981, dated 1984).
Where “and” joins values, the source holds several entries; their conditions need not be identical. Identical values can stand only once. Entries after “also recorded” stand apart in the source; their conditions may differ. Counter-ions that a name gives are not always drawn. Like-named read-outs stand apart in the source and are kept apart here.

Tests used:
lens homogenate = assay: heat-induced denaturation of lens homogenate (60° C., 20 min, nephelometric); assay type: biochemical, rat; conditions: for % inhibition of heat-induced denaturation of lens homogenate: 60° C., 20 min, pH 7.5
Description: (§1) Experiments in vitro: A study was performed on both lens homogenates and intact lens. The opacification of this material was obtained by heating. For this purpose the same method as that already employed to study blood proteins was used (Silvestrini et al., 1968; Silvestrini et al., 1970) with some minor modifications which are reported below.
(§2) For the study of the homogenate, fresh rat lens were used which has been removed from the capsule, immersed in phosphate buffer (pH 7.5; 0.1M) in the volumetric ratio of 15:85 and then homogenated. The homogenate was then centrifuged (10 minutes at 4000 r.p.m.), the supernatant was collected and further diluted 1:1 with the above phosphate buffer, alone or containing bendazac at different concentrations. The solution thus obtained was heated at 60° C. for 20 minutes and the denaturation was assessed nephelometrically. As reference a comparison is made with the values obtained with bovine serum albumin (BSA) denaturation.
(§3) The experiment was repeated using different salts of bendazac including lithium, sodium, potassium, ammonium, organic bases (such as ethylenediamine, piperazine and diisopropylamine) and lysine. […] This experiment proves that the active ingredient is bendazac. The intact lens was studied by using fresh bovine lens which were kept for 2 hours in the phosphate buffer described above, either alone or containing bendazac at different concentrations. The lenses were then heated at 50° C. for 120 minutes; this procedure produced a clear-cut opacification in the subcapsular region. The degree of opacification was assessed blindly (the experimentor was unaware of the treatment), using a score from 0 to 4.

cataract [1] = conditions: literature, cited from earlier work
cataract [2] = assay: second experiment: double blind placebo-controlled anti-cataract study in patients, oral; assay type: in vivo, human; parameters: key to Vision / Refraction / Overall Judgement / Slit-lamp / Transillumination: +: improvement; 0: no change; -: worsening
Description: (§4) A first experiment was conducted on 24 patients with different types of cataract (cortical; corticonuclear, posterior subcapsular). […] The experiment included an examination of vision, refraction and slit-lamp test; the investigator was asked to express an overall judgement. These evaluations were performed before the beginning of treatment, after 4 weeks and again at the end of treatment when prolonged. The lysine salt of bendazac was administered at the dose of 1500 mg (corresponding to […] of bendazac) divided into three daily administrations during meals. The average duration of treatment was 50.4 days with time limits from 28 to 86 days. The study group consisted of 11 females and 13 males with an average age of 59.5 (47-74). The effects of treatment are summarized in Table 3; the values obtained in each patient are illustrated instead in Table 4. For practical purposes the results are expressed as: improvement (+), no change (0), worsening (-).
As a result of these encouraging results we decided to repeat the experiment under double blind conditions comparing the lysine salt of bendazac with placebo. A total of 35 patients were used; 19 were treated with placebo and 16 with the lysine salt of bendazac. The experimental methods used were identical to those described in the first experiment except for the duration of treatment which was always 4 weeks.

[3] = oral absorption in man, serum concentration after single oral administration; assay type: in vivo, human; conditions: for concentration at 2 h: human, serum
Source text: These blood levels appeared too low to obtain therapeutic activity.

cataract [4] = assay: eye drops instilled in 4 patients with cataract; assay type: in vivo, human; conditions: topical, eye drops 3 times daily for one month
Description: Finally, bendazac was administered in 4 patients in the form of eye drops containing 0.25% of the lysine salt of bendazac. Eye drops were instilled 3 times daily for one month.

cataract [5] = assay: first experiment: anti-cataract activity in 24 patients, oral; assay type: in vivo, human; parameters: key to Vision / Refraction / Slit-lamp and/or transillumin. / Overall Judgement: +: improvement; 0: no change; -: worsening
Description: as §4

[6] = cited from earlier work
blood proteins = conditions: literature; cited from earlier work
[7] = biological target: bovine serum albumin (BSA) (Bos taurus, UniProt P02769); assay: heat-induced denaturation of bovine serum albumin (BSA); assay type: biochemical
bovine serum albumin (BSA), sequence (P02769 25-607): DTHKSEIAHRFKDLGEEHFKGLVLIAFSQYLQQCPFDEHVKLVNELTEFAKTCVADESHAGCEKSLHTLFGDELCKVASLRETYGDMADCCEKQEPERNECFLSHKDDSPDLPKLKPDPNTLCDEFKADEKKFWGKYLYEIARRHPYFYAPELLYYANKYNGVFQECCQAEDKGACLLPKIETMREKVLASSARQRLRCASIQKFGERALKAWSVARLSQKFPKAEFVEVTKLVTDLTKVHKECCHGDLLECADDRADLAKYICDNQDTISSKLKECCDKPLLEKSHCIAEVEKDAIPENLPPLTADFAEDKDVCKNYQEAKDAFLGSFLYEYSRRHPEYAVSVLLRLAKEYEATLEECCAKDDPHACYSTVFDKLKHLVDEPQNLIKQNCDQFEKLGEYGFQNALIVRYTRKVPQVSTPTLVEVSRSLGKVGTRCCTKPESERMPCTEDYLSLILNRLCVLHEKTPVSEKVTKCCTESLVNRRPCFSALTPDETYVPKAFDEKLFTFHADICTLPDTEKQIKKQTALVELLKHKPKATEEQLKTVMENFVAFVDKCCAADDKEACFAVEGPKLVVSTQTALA
Description: as §2, with “Experiments in vitro: A study was performed on both lens homogenates and intact lens. The opacification of this material was obtained by heating. For this purpose the same method as that already employed to study blood proteins was used (Silvestrini et al., 1968; Silvestrini et al., 1970) with some minor modifications which are reported below. For” for “For”

isolated bovine lenses = assay: heat-induced opacification of isolated intact bovine lenses (50° C., 120 min, blind score); conditions: same molar concentrations for salts
Description: as §1, §3
The test was repeated using the various salts of bendazac mentioned above and in this case also with the same molar concentrations the results obtained were identical to those observed with bendazac alone.

[8] = 16 patients, 4 weeks, double blind, placebo (19) 1
[9] = 16 patients, 4 weeks, double blind, placebo (19) 2
[10] = 16 patients, 4 weeks, double blind, placebo (19) --
[11] = individual patient, one per line of Table 6, 4 weeks, oral, listed as bendazac L, (dihydrate)
[12] = 24 patients, 1500 mg daily oral, Table 3 summary
[13] = individual patient, one per line of Table 4, 1500 mg daily oral, 28-86 days, (dihydrate)
[14] = drug molar concentration 5 × 10^-4

O=C(O)COc1nn(Cc2ccccc2)c2ccccc12
anti-denaturant effect on the lens homogenate compared with bendazac alone (lens homogenate; at the same molar concentrations): the same anti-denaturant effect on the lens homogenate as that of bendazac alone

CC(=O)Oc1ccccc1C(=O)O [aspirin, acetylsalicylic acid]
effect on cataract development (words) (cataract [1]): possible slowdown in cataract development | effect on cataract development (words) (cataract [1]; listed as acetylsalicylic acid): delays the development of cataract but does not determine its regression

O=C(O)c1cc(O)c2c3nc4ccccc4oc-3cc(=O)c2n1 [Catalin, 1-hydroxy-5-oxo-5H-pyrido[3,2-a]phenoxazino-3-carboxylic acid]
effect on cataract development (words) (cataract [1]): possible slowdown in cataract development

O=C(O)COc1nn(Cc2ccccc2)c2ccccc12 [lysine salt of bendazac, Salt of [(1-benzyl-1H-indazol-3-yl)oxy]acetic acid with L. lysine (dihydrate)]
Overall Judgement: worsening (-), number of patients (cataract [2]; 16 patients, 4 weeks, double blind): 2 | Overall Judgement: improvement (+), number of patients (cataract [2]; [8]): 11 | Refraction: improvement (+), number of patients (cataract [2]; [8]): 9 | Transillumination: no change (0), number of patients (cataract [2]; [8]): 2 | Vision: improvement (+), number of patients (cataract [2]; [8]): 10 | Overall Judgement: no change (0), number of patients (cataract [2]; [9]): 3 | Slit-lamp: no change (0), number of patients (cataract [2]; [9]): 2 | Vision: no change (0), number of patients (cataract [2]; 16 patients, 4 weeks, double blind, placebo (19) 6): 6 | Slit-lamp: worsening (-), number of patients (cataract [2]; 16 patients, 4 weeks, double blind, placebo (19) 9): 1 | Refraction: no change (0), number of patients (cataract [2]; 16 patients, 4 weeks, double blind, placebo (19) 12): 7 | Slit-lamp: improvement (+), number of patients (cataract [2]; [10]): 10 | Transillumination: improvement (+), number of patients (cataract [2]; [10]): 4 | Overall Judgement (cataract [2]; [11]): 0 and + and - | Refraction (cataract [2]; [11]): 0 and + | Slit-lamp (cataract [2]; [11]): + and 0 and - | Transillumination (cataract [2]; [11]): + and 0 | Vision (cataract [2]; [11]): 0 and + | effect on cataract (cataract [2]; oral administration, patients, (dihydrate)): healing effect on cataract; also recorded: induces a regression of the disease | concentration at 2 h ([3]; 2 hours after single oral administration of 500 mg lysine salt (= 303.8 mg bendazac), 6 volunteers, read-out: mean serum concentration): 30000 ng/mL | oral absorption in man ([3]; lysine salt vs bendazac alone, (dihydrate)): good oral absorption; also recorded: better absorbed in man than bendazac alone | effect on cataract (cataract [4]): induces a regression of the disease | Overall Judgement: improvement (+), number of patients (cataract [5]; [12]): 18 | Overall Judgement: no change (0), number of patients (cataract [5]; [12]): 5 | Overall Judgement: worsening (-), number of patients (cataract [5]; [12]): 1 | Refraction: improvement (+), number of patients (cataract [5]; [12]): 10 | Refraction: no change (0), number of patients (cataract [5]; [12]): 13 | Refraction: worsening (-), number of patients (cataract [5]; [12]): 1 | Slit-lamp and/or Transillum.: improvement (+), number of patients (cataract [5]; [12]): 14 | Slit-lamp and/or Transillum.: no change (0), number of patients (cataract [5]; [12]): 10 | Vision: improvement (+), number of patients (cataract [5]; [12]): 18 | Vision: no change (0), number of patients (cataract [5]; [12]): 6 | number of patients with improvement (cataract [5]; depending on the evaluation method): 10-18 patients | number of patients with relatively poor results (cataract [5]; first experiment, 24 patients): 5 patients | number of patients with worsening effect (cataract [5]; first experiment, 24 patients): 1 patient | Overall Judgement (cataract [5]; [13]): + and - and 0 | Refraction (cataract [5]; [13]): + and 0 and - | Slit-lamp and/or transillumin. (cataract [5]; [13]): + and 0 | Vision (cataract [5]; [13]): + and 0

O=C(O)COc1nn(Cc2ccccc2)c2ccccc12 [bendazac, [(1-benzyl-1H-indazol-3-yl)oxy]acetic acid]
oral absorption in humans ([6]; Silvestrini et al.): rather low; also recorded: too low | blood levels ([6]; following 8 days of treatment at increasing doses from 150 to 900 mg daily, humans): 8 µg | concentration at 2 h ([3]; 300 mg of bendazac alone, oral, under the same conditions, read-out: serum levels): 8000 ng/mL | anti-denaturant activity on proteins (blood proteins): very specific anti-denaturant activity on some blood proteins | protective effect on heat-induced denaturation of lens homogenate (lens homogenate; compared with BSA): prevents heat-induced denaturation of lens homogenate and that this protective effect is similar to that observed with BSA | % inhibition of heat-induced denaturation of lens homogenate (lens homogenate; [14]): 32% | % inhibition of heat-induced denaturation of lens homogenate (lens homogenate; drug molar concentration 10^-3): 68% | % inhibition of heat-induced denaturation of lens homogenate (lens homogenate; drug molar concentration 10^-4): 18% | inhibition at 500 µM [7, 14]: 47% | inhibition at 1000 µM ([7]; drug molar concentration 10^-3): 60% | inhibition at 100 µM ([7]; drug molar concentration 10^-4): 12% | protective effect on lens opacification in vitro (words) (isolated bovine lenses): protective action in vitro with respect to lens opacification | protective effect on lens opacification in vitro (words) (isolated bovine lenses; listed as Bendazac): clearcut protective effect on this experimentally induced cataract
